From patent publication US7928107B2, “Quinazolines useful as modulators of ion channels” (Vertex Pharmaceuticals Incorporated, priority 2004, dated 2011) come the findings set out here.

Molecules are shown by their SMILES.

Chain of NaV 1.8 channel (Q9Y5Y9 whole entry): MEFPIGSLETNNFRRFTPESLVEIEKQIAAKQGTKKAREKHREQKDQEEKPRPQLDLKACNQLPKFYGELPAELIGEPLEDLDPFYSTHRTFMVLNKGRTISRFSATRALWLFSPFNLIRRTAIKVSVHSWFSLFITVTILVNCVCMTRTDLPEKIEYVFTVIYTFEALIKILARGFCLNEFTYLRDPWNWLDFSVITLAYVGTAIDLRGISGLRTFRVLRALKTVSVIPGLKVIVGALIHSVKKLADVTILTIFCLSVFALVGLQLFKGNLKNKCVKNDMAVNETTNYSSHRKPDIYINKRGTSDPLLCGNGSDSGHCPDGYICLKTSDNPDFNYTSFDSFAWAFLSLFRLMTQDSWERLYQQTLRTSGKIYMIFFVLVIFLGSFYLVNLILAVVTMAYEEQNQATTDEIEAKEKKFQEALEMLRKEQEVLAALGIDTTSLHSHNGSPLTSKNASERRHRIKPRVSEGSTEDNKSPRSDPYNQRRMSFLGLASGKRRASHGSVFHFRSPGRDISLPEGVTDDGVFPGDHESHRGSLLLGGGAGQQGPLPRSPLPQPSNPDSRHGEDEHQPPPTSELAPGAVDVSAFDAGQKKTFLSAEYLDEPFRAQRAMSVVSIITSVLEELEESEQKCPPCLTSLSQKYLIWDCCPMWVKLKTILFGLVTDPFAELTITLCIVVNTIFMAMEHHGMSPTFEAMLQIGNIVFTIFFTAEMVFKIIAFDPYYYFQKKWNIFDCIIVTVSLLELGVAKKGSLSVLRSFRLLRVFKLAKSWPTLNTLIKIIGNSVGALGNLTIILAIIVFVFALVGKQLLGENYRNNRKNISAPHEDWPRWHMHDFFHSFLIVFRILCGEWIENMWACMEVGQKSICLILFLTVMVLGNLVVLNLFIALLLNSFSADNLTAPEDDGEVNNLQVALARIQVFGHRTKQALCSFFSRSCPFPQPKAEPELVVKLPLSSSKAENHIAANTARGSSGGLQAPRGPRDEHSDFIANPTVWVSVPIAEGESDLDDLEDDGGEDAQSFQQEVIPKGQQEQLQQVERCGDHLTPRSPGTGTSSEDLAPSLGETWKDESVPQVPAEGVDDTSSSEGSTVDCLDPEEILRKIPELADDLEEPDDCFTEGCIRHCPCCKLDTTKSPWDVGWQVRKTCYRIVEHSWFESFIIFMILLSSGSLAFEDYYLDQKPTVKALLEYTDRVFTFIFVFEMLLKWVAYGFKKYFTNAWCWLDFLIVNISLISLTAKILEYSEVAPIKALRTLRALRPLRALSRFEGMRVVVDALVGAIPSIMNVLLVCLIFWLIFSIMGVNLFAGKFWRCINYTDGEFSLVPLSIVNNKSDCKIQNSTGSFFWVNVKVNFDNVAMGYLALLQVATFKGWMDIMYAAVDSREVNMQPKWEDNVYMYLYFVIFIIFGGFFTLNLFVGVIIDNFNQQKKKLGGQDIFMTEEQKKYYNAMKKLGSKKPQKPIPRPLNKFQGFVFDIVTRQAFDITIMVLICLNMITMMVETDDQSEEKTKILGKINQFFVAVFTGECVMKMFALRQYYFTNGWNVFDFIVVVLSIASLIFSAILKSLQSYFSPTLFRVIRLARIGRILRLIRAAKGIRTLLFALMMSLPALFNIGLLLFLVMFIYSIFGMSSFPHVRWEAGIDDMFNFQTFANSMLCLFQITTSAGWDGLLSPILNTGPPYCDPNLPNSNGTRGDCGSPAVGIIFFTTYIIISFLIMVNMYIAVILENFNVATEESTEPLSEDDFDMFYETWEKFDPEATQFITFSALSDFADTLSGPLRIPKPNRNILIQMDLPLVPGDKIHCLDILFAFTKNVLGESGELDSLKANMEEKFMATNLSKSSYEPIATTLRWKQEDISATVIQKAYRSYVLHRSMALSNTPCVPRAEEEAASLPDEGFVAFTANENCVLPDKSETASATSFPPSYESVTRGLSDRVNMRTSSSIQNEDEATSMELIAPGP

The test deals with NaV 1.8 channel (Homo sapiens, UniProt Q9Y5Y9). Description: Activity against NaV 1.8 channel (optical membrane potential assay). It counts as cell-based. In short, it runs like this:
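Cells expressing the NaV of interest loaded with CC2-DMPE (30 min, room temperature) then DiSBAC2(3) with ABSCl and veratridine; compound incubated 20–30 min. Depolarization triggered by sodium add-back and read on VIPR as 460/580 nm FRET ratio (Rf/Ri), normalized to tetracaine and untreated controls.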
For `CCOC(=O)NC[C@@H]1CCN(c2nc(-c3ccccc3O)nc3cc(C)ccc23)C1` [Example 364, Ethyl ((S)-1-(2-(2-hydroxyphenyl)-7-methylquinazolin-4-yl)pyrrolidin-3-yl)methylcarbamate], the half-maximal inhibitory concentration (IC50) is below 2 µM.

On to `Cc1ccc2c(N3CC[C@@H](CNC(=O)OCC(C)C)C3)nc(-c3ccccc3O)nc2c1` [Example 365, Isobutyl ((S)-1-(2-(2-hydroxyphenyl)-7-methylquinazolin-4-yl)pyrrolidin-3-yl)methylcarbamate], for which the concentration for half-maximal inhibition (IC50) is below 2 µM.

For `COCCOC(=O)NC[C@@H]1CCN(c2nc(-c3ccccc3O)nc3cc(C)ccc23)C1` [Example 366, 2-Methoxyethyl ((S)-1-(2-(2-hydroxyphenyl)-7-methylquinazolin-4-yl)pyrrolidin-3-yl)methylcarbamate], the 50% inhibitory concentration (IC50) fell in the range of 2 to 10 µM.

For the molecule `CCCOC(=O)NC[C@@H]1CCN(c2nc(-c3ccccc3O)nc3cc(C)ccc23)C1` [Example 367, Propyl ((S)-1-(2-(2-hydroxyphenyl)-7-methylquinazolin-4-yl)pyrrolidin-3-yl)methylcarbamate], the IC50 was below 2 µM.

Turning to `Cc1ccc2c(N3CC[C@@H](CNC(=O)OC(C)C)C3)nc(-c3ccccc3O)nc2c1` [Example 368, Isopropyl ((S)-1-(2-(2-hydroxyphenyl)-7-methylquinazolin-4-yl)pyrrolidin-3-yl)methylcarbamate], the IC50 lay within 2 to 10 µM.

With `Cc1ccc2c(N3CC[C@@H](CNC(=O)OCC(C)(C)C)C3)nc(-c3ccccc3O)nc2c1` [Example 369, Neopentyl ((S)-1-(2-(2-hydroxyphenyl)-7-methylquinazolin-4-yl)pyrrolidin-3-yl)methylcarbamate], the IC50 is below 2 µM.

Turning to `Cc1ccc2c(N3CC[C@H](NC(=O)OC(C)(C)C)C3)nc(-c3ccccc3O)nc2c1` [Example 370, tert-Butyl (S)-1-(2-(2-hydroxyphenyl)-7-methylquinazolin-4-yl)pyrrolidin-3-ylcarbamate], the IC50 was below 2 µM.

`Cc1ccc2c(N3CC[C@@H](CNC(=O)OC(C)C)C3)nc(-c3c(O)cccc3F)nc2c1` [Example 371, Isopropyl ((S)-1-(2-(2-fluoro-6-hydroxyphenyl)-7-methylquinazolin-4-yl)pyrrolidin-3-yl)methylcarbamate]: the IC50 is below 2 µM.

Regarding `Cc1ccc2c(N3CC[C@@H](CNC(=O)OCC(C)C)C3)nc(-c3c(O)cccc3F)nc2c1` [Example 372, Isobutyl ((S)-1-(2-(2-fluoro-6-hydroxyphenyl)-7-methylquinazolin-4-yl)pyrrolidin-3-yl)methylcarbamate], the IC50 was below 2 µM.

Take `COCCOC(=O)NC[C@@H]1CCN(c2nc(-c3c(O)cccc3F)nc3cc(C)ccc23)C1` [Example 373, 2-Methoxyethyl ((S)-1-(2-(2-fluoro-6-hydroxyphenyl)-7-methylquinazolin-4-yl)pyrrolidin-3-yl)methylcarbamate]: the IC50 was in the range of 2 to 10 µM.

As to `CCCOC(=O)NC[C@@H]1CCN(c2nc(-c3ccccc3O)nc3ccc(F)cc23)C1` [Example 374, Propyl ((S)-1-(6-fluoro-2-(2-hydroxyphenyl)quinazolin-4-yl)pyrrolidin-3-yl)methylcarbamate], the IC50 was above 10 µM.

With `CC(C)(C)COC(=O)NC[C@@H]1CCN(c2nc(-c3ccccc3O)nc3ccc(F)cc23)C1` [Example 375, Neopentyl ((S)-1-(6-fluoro-2-(2-hydroxyphenyl)quinazolin-4-yl)pyrrolidin-3-yl)methylcarbamate], the half-maximal inhibitory concentration (IC50) was above 10 µM.

On to `CC(C)COC(=O)NC[C@@H]1CCN(c2nc(-c3ccccc3O)nc3ccc(F)cc23)C1` [Example 376, Isobutyl ((S)-1-(6-fluoro-2-(2-hydroxyphenyl)quinazolin-4-yl)pyrrolidin-3-yl)methylcarbamate], for which the IC50 is above 10 µM.

As for `COCCOC(=O)NC[C@@H]1CCN(c2nc(-c3ccccc3O)nc3ccc(F)cc23)C1` [Example 377, 2-Methoxyethyl ((S)-1-(6-fluoro-2-(2-hydroxyphenyl)quinazolin-4-yl)pyrrolidin-3-yl)methylcarbamate], the 50% inhibitory concentration (IC50) is 2 to 10 µM.

On to `Cc1ccc2c(N3CC(C(=O)NCc4ccncc4)C3)nc(-c3ccccc3O)nc2c1` [Example 401, 1-(2-(2-Hydroxyphenyl)-7-methylquinazolin-4-yl)-N-((pyridin-4-yl)methyl)azetidine-3-carboxamide], for which the 50% inhibitory concentration (IC50) is above 10 µM.

On to `Cc1ccc2c(N3CC(C(=O)NCc4cccnc4)C3)nc(-c3ccccc3O)nc2c1` [Example 402, 1-(2-(2-Hydroxyphenyl)-7-methylquinazolin-4-yl)-N-((pyridin-3-yl)methyl)azetidine-3-carboxamide], for which the concentration for half-maximal inhibition (IC50) was above 10 µM.

As to `Cc1ccc2c(N3CC(C(=O)NCc4cccc(OC(F)(F)F)c4)C3)nc(-c3ccccc3O)nc2c1` [Example 403, N-(3-(Trifluoromethoxy)benzyl)-1-(2-(2-hydroxyphenyl)-7-methylquinazolin-4-yl)azetidine-3-carboxamide], the IC50 was above 10 µM.

Consider `Cc1ccc2c(N3CC(CNC(=O)OCC4CCCO4)C3)nc(-c3ccccc3O)nc2c1` (centres unmarked) [Example 415], for which the IC50 lay in the range of 2 to 10 µM.

Regarding `Cc1ccc2c(N3CC(NC(=O)OCC4CCOC4)C3)nc(-c3ccccc3O)nc2c1` (centres unmarked) [Example 416], the IC50 is above 10 µM.

In the case of `Cc1ccc2c(N3CC(CNC(=O)C4CCCO4)C3)nc(-c3ccccc3O)nc2c1` (centres unmarked) [Example 417], the concentration for half-maximal inhibition (IC50) was above 10 µM.

For the molecule `Cc1ccc2c(N3CC(CNC(=O)OCC(C)C)C3)nc(-c3ccccc3O)nc2c1` [Example 418], the IC50 lay within 2 to 10 µM.

For the molecule `COCCOC(=O)NCC1CN(c2nc(-c3ccccc3O)nc3cc(C)ccc23)C1` [Example 419], the IC50 fell in the range of 2 to 10 µM.

For `Cc1ccc2c(N3CC(CNC(=O)OC(C)C)C3)nc(-c3ccccc3O)nc2c1` [Example 420], the concentration for half-maximal inhibition (IC50) was below 2 µM.
